Measured values published in patent publication US12540141B2, “Spiropyrrolidine derived antiviral agents” (priority 2020, dated 2026).

Molecular target: SARS-CoV-2 3CL-protease (Severe acute respiratory syndrome coronavirus 2, UniProt P0DTD1)
Experiment: SARS-CoV-2 3C-Like (3CL) Protease Fluorescence Assay (FRET)
Type: biochemical
Settings: SARS-CoV-2 3CL-protease 10 nM, 30 min preincubation at RT, substrate 40 μM

With CC(C)(C)C[C@H](NC(=O)c1cnn(-c2ccc(C(F)(F)F)cc2)c1)C(=O)N1C[C@]2(C[C@H]1C#N)C(=O)Nc1ccccc12 [Example 145] as the compound, how does the IC50 read?
Its IC50 is < 0.1 µM.

How did the IC50 turn out when CC(C)C[C@@H](C(=O)N1C[C@]2(C[C@H]1C#N)C(=O)Nc1ccccc12)N(C)C(=O)c1cnc2ccccc2n1 [Example 298] was run?
Its IC50 is 0.1 to 1 µM.

How did the IC50 turn out when CC(=O)c1ccc2c(c1)[C@@]1(C[C@@H](C#N)N(C(=O)[C@H](CC(C)C)N(C)C(=O)c3cc4c(F)cc(F)cc4[nH]3)C1)C(=O)N2 [Example 499] was run?
The IC50 was < 0.1 µM.

How did the IC50 turn out when CC(C)C[C@@H](C(=O)N1C[C@]2(C[C@H]1C#N)C(=O)Nc1ccccc12)N(C)C(=O)c1ccc2nc(N)sc2c1 [Example 225] was run?
The IC50 was > 1 µM.

Which IC50 does the source give for CC(C)C[C@@H](C(=O)N1C[C@]2(C[C@H]1C#N)C(=O)Nc1ccccc12)N(C)C(=O)c1cccc(-c2cccc(Cl)c2)c1 [Example 266] here?
The IC50 was 0.1 to 1 µM.

For CC(C)C[C@@H](C(=O)N1C[C@]2(C[C@H]1C#N)C(=O)Nc1ccccc12)N(C)C(=O)c1cc(Cl)c2nn(C3CC3)cc2c1 [Example 316], which IC50 is on record?
Its IC50 is < 0.1 µM.

How did the IC50 turn out when CC(C)(C)C[C@H](NC(=O)c1ccc2ncc(C(F)(F)F)cc2c1)C(=O)N1C[C@]2(C[C@H]1C#N)C(=O)Nc1ccccc12 [Example 134] was run?
The IC50 was 0.1 to 1 µM.

CC(C)C[C@@H](C(=O)N1C[C@]2(C[C@H]1C#N)C(=O)Nc1ccccc12)N(C)C(=O)c1ccc(OC2CC2)c(-c2cccnc2)c1 [Example 343] was tested. Which IC50 did it give?
The IC50 was < 0.1 µM.

For COc1ccc(C(=O)N(C)[C@@H](CC(C)C)C(=O)N2C[C@]3(C[C@H]2C#N)C(=O)Nc2ccccc23)cc1C(F)(F)F [Example 181], which IC50 is on record?
Its IC50 is < 0.1 µM.

For CC(C)C[C@@H](C(=O)N1C[C@]2(C[C@H]1C#N)C(=O)Nc1ccccc12)N(C)C(=O)c1ccc2c(Cl)ccnc2c1 [Example 271], which IC50 is on record?
Its IC50 is 0.1 to 1 µM.

How did the IC50 turn out when CN(C(=O)c1nc2cccnc2[nH]1)[C@@H](CC1CC1)C(=O)N1C[C@]2(C[C@H]1C#N)C(=O)Nc1ccc(Cl)cc12 [Example 463] was run?
Its IC50 is < 0.1 µM.

With CC(C)C[C@@H](C(=O)N1C[C@]2(C[C@H]1C#N)C(=O)Nc1ccccc12)N(C)C(=O)[C@H](c1cn(C)nn1)C(C)C [Example 351] as the compound, how does the IC50 read?
The IC50 was < 0.1 µM.

With CC(C)C[C@@H](C(=O)N1C[C@]2(C[C@H]1C#N)C(=O)Nc1ccccc12)N(C)C(=O)c1ccncc1 [Example 194] as the compound, how does the IC50 read?
The IC50 was 0.1 to 1 µM.

Which IC50 does the source give for CC(C)C[C@@H](C(=O)N1C[C@]2(C[C@H]1C#N)C(=O)Nc1ccccc12)N(C)C(=O)c1c(Cl)cc(Cl)cc1Cl [Example 185] here?
The IC50 was < 0.1 µM.

With C[C@H](OC(=O)N[C@@H](CC(C)(C)C)C(=O)N1C[C@]2(C[C@H]1C#N)C(=O)Nc1ccc(F)cc12)c1ccc(F)cc1 [Example 524] as the compound, how does the IC50 read?
Its IC50 is < 0.1 µM.

CC(C)(C)C[C@H](NC(=O)Nc1ccc(F)cc1)C(=O)N1C[C@]2(C[C@H]1C#N)C(=O)Nc1ccccc12 [Example 441] was tested. Which IC50 did it give?
The IC50 was 0.1 to 1 µM.

Cc1ccnc2[nH]c(C(=O)N(C)[C@@H](CC3CC3)C(=O)N3C[C@]4(C[C@H]3C#N)C(=O)Nc3ccc(Cl)cc34)cc12 [Example 460] was tested. Which IC50 did it give?
The IC50 was < 0.1 µM.

CN(C(=O)CCCN1CCOCC1)[C@@H](CC(C)(C)F)C(=O)N1C[C@]2(C[C@H]1C#N)C(=O)Nc1ccccc12 [Example 538] was tested. Which IC50 did it give?
Its IC50 is > 1 µM.

CC(C)C[C@@H](C(=O)N1C[C@]2(C[C@H]1C#N)C(=O)Nc1ccc(-c3ccncc3)cc12)N(C)C(=O)c1cc2c(F)cc(F)cc2[nH]1 [Example 510] was tested. Which IC50 did it give?
The IC50 was < 0.1 µM.

Which IC50 does the source give for [2H]C([2H])([2H])N(C(=O)[C@H](O)c1ccccc1)[C@@H](CC(C)(C)C)C(=O)N1C[C@]2(C[C@H]1C#N)C(=O)Nc1ccccc12 [Example 428] here?
Its IC50 is < 0.1 µM.

Which IC50 does the source give for CC(C)(C)C[C@H](NC(=O)c1cc2c(F)cc(F)cc2[nH]1)C(=O)N1C[C@]2(C[C@H]1C#N)C(=O)Nc1ccc(Cl)cc12 [Example 448] here?
Its IC50 is < 0.1 µM.

Which IC50 does the source give for CC(C)C[C@@H](C(=O)N1C[C@]2(C[C@H]1C#N)C(=O)Nc1ccccc12)N(C)C(=O)c1ccc(Cl)c(Cl)c1 [Example 166] here?
Its IC50 is < 0.1 µM.

COc1ccc(C(=O)N(C)[C@@H](CC(C)C)C(=O)N2C[C@]3(C[C@H]2C#N)C(=O)Nc2ccccc23)nc1 [Example 193] was tested. Which IC50 did it give?
Its IC50 is 0.1 to 1 µM.

For CC(C)C[C@@H](C(=O)N1C[C@]2(C[C@H]1C#N)C(=O)Nc1ccccc12)N(C)C(=O)C#Cc1ccccc1 [Example 248], which IC50 is on record?
The IC50 was 0.1 to 1 µM.

With CC(C)C[C@@H](C(=O)N1C[C@]2(C[C@H]1C#N)C(=O)Nc1ccccc12)N(C)C(=O)c1ccc2cc(F)ccc2c1 [Example 222] as the compound, how does the IC50 read?
Its IC50 is 0.1 to 1 µM.

How did the IC50 turn out when CC(C)C[C@@H](C(=O)N1C[C@]2(C[C@H]1C#N)C(=O)Nc1ccccc12)N(C)C(=O)CC1CC1 [Example 364] was run?
Its IC50 is < 0.1 µM.

How did the IC50 turn out when CC(C)C[C@@H](C(=O)N1C[C@]2(C[C@H]1C#N)C(=O)Nc1ccccc12)N(C)C(=O)C1(c2ccc3c(c2)OC(F)(F)O3)CC1 [Example 329] was run?
Its IC50 is < 0.1 µM.

How did the IC50 turn out when CN(C(=O)c1cc2c(F)cc(F)cc2[nH]1)[C@@H](CC(C)(C)F)C(=O)N1C[C@]2(C[C@H]1C#N)C(=O)Nc1ccc(Cl)cc12 [Example 455] was run?
The IC50 was < 0.1 µM.

With N#C[C@@H]1C[C@@]2(CN1C(=O)[C@H](CC1CC1)NC(=O)c1c(Cl)cccc1Cl)C(=O)Nc1ccc(Cl)cc12 [Example 525] as the compound, how does the IC50 read?
Its IC50 is < 0.1 µM.

CC(C)C[C@@H](C(=O)N1C[C@]2(C[C@H]1C#N)C(=O)Nc1ccccc12)N(C)C(=O)c1cc(OC2CC2)n2nc(C3CC3)c(C(=O)C(F)(F)F)c2c1 [Example 313] was tested. Which IC50 did it give?
The IC50 was 0.1 to 1 µM.

Which IC50 does the source give for CC(C)C[C@@H](C(=O)N1C[C@]2(C[C@H]1C#N)C(=O)Nc1ccccc12)N(C)C(=O)[C@@H]1CCN(C(=O)OC(C)(C)C)C1 [Example 345] here?
Its IC50 is < 0.1 µM.

For CC(C)C[C@@H](C(=O)N1C[C@]2(C[C@H]1C#N)C(=O)Nc1ccc(Cl)cc12)N(C)C(=O)c1cc2cccnc2[nH]1 [Example 468], which IC50 is on record?
Its IC50 is < 0.1 µM.

Which IC50 does the source give for CC(C)(C)C[C@H](NC(=O)c1cnn(C(C)(C)C)c1)C(=O)N1C[C@]2(C[C@H]1C#N)C(=O)Nc1ccccc12 [Example 133] here?
The IC50 was < 0.1 µM.

Which IC50 does the source give for CN(C(=O)CN1CCOCC1)[C@@H](CC(C)(C)F)C(=O)N1C[C@]2(C[C@H]1C#N)C(=O)Nc1ccccc12 [Example 536] here?
Its IC50 is 0.1 to 1 µM.

Which IC50 does the source give for CN(C(=O)c1cc2ncccc2[nH]1)[C@@H](CC1CC1)C(=O)N1C[C@]2(C[C@H]1C#N)C(=O)Nc1ccc(Cl)cc12 [Example 456] here?
The IC50 was < 0.1 µM.

Which IC50 does the source give for CC(C)C[C@@H](C(=O)N1C[C@]2(C[C@H]1C#N)C(=O)Nc1ccccc12)N(C)C(=O)c1cccc2cccnc12 [Example 296] here?
The IC50 was 0.1 to 1 µM.

How did the IC50 turn out when CC(C)C[C@@H](C(=O)N1C[C@]2(C[C@H]1C#N)C(=O)Nc1ccccc12)N(C)C(=O)CCN [Example 367] was run?
Its IC50 is < 0.1 µM.

How did the IC50 turn out when CC(C)C[C@@H](C(=O)N1C[C@]2(C[C@H]1C#N)C(=O)Nc1ccccc12)N(C)C(=O)c1cc2cccc(F)c2[nH]1 [Example 325] was run?
The IC50 was < 0.1 µM.

With CC(C)C[C@@H](C(=O)N1C[C@]2(C[C@H]1C#N)C(=O)Nc1ccccc12)N(C)C(=O)c1cnc2ccccc2c1 [Example 213] as the compound, how does the IC50 read?
The IC50 was < 0.1 µM.

Which IC50 does the source give for CC(C)C[C@@H](C(=O)N1C[C@]2(C[C@H]1C#N)C(=O)Nc1ccccc12)N(C)C(=O)c1cc2ccc(C(F)(F)F)cc2[nH]1 [Example 331] here?
The IC50 was < 0.1 µM.

How did the IC50 turn out when CC(C)C[C@@H](C(=O)N1C[C@]2(C[C@H]1C#N)C(=O)Nc1ccc(-c3ccc(F)cc3)cc12)N(C)C(=O)c1cc2c(F)cc(F)cc2[nH]1 [Example 511] was run?
The IC50 was < 0.1 µM.

How did the IC50 turn out when CCC[C@@H](C(=O)N1C[C@]2(C[C@H]1C#N)C(=O)Nc1ccccc12)N(C)C(=O)c1cc2c(F)cc(F)cc2[nH]1 [Example 386] was run?
Its IC50 is < 0.1 µM.

For CC(C)C[C@@H](C(=O)N1C[C@]2(C[C@H]1C#N)C(=O)Nc1ccccc12)N(C)C(=O)c1cc2ccc(C(C)C)nc2[nH]1 [Example 491], which IC50 is on record?
The IC50 was < 0.1 µM.

For CN(C(=O)c1cc2c(F)cc(F)cc2[nH]1)[C@@H](COC(C)(C)C)C(=O)N1C[C@]2(C[C@H]1C#N)C(=O)Nc1ccccc12 [Example 371], which IC50 is on record?
Its IC50 is < 0.1 µM.

CC(C)C[C@@H](C(=O)N1C[C@]2(C[C@H]1C#N)C(=O)Nc1ccccc12)N(C)C(=O)c1cc(F)c2nn(C3CC3)cc2c1 [Example 311] was tested. Which IC50 did it give?
The IC50 was 0.1 to 1 µM.

With CC(=O)C[C@@H](C(=O)N1C[C@]2(C[C@H]1C#N)C(=O)Nc1ccccc12)N(C)C(=O)c1cc2c(F)cc(F)cc2[nH]1 [Example 442] as the compound, how does the IC50 read?
Its IC50 is < 0.1 µM.

With CN(C(=O)OCc1ccccc1)[C@@H](Cc1ccc(OCc2ccccc2)cc1)C(=O)N1C[C@]2(C[C@H]1C#N)C(=O)Nc1ccccc12 [Example 387] as the compound, how does the IC50 read?
Its IC50 is > 1 µM.

How did the IC50 turn out when CC(C)C[C@@H](C(=O)N1C[C@]2(C[C@H]1C(=O)CO)C(=O)Nc1ccccc12)N(C)C(=O)c1cc2c(F)cc(F)c(F)c2[nH]1 [Example 158] was run?
Its IC50 is > 1 µM.

Which IC50 does the source give for Cc1c(C(=O)N[C@@H](CC2CC2)C(=O)N2C[C@]3(C[C@H]2C#N)C(=O)Nc2ccc(Cl)cc23)sc2cccc(F)c12 [Example 519, N—((S)-1-((3R,5′S)-5-chloro-5′-cyano-2-oxospiro[indoline-3,3′-pyrrolidin]-1′-yl)-3-cyclopropyl-1-oxopropan-2-yl)-4-fluoro-3-methylbenzo[b]thiophene-2-carboxamide] here?
Its IC50 is < 0.1 µM.

With CC(C)C[C@@H](C(=O)N1C[C@]2(C[C@H]1C#N)C(=O)Nc1ccccc12)N(C)C(=O)c1ccc2cccnc2c1 [Example 218] as the compound, how does the IC50 read?
Its IC50 is 0.1 to 1 µM.

Which IC50 does the source give for CC(C)C[C@@H](C(=O)N1C[C@]2(C[C@H]1C#N)C(=O)Nc1ccccc12)N(C)C(=O)c1cc2cccnc2[nH]1 [Example 464] here?
The IC50 was < 0.1 µM.

How did the IC50 turn out when CC(C)C[C@@H](C(=O)N1C[C@]2(C[C@H]1C#N)C(=O)Nc1ccc(-c3ccoc3)cc12)N(C)C(=O)c1cc2c(F)cc(F)cc2[nH]1 [Example 512] was run?
The IC50 was < 0.1 µM.

CN(C(=O)c1cc2c(F)cc(F)c(F)c2[nH]1)[C@@H](CC(C)(C)F)C(=O)N1C[C@]2(C[C@H]1C#N)C(=O)Nc1ncccc12 [Example 551] was tested. Which IC50 did it give?
The IC50 was < 0.1 µM.

How did the IC50 turn out when COc1cc(C(=O)N(C)[C@@H](CC(C)C)C(=O)N2C[C@]3(C[C@H]2C#N)C(=O)Nc2ccccc23)cc2cn(C3CCC3)nc12 [Example 320] was run?
The IC50 was < 0.1 µM.

Cc1cccc2[nH]c(C(=O)N(C)[C@@H](CC(C)C)C(=O)N3C[C@]4(C[C@H]3C#N)C(=O)Nc3ccccc34)nc12 [Example 252] was tested. Which IC50 did it give?
The IC50 was < 0.1 µM.

CN(C(=O)c1cc2c(OC3CC3)cccc2[nH]1)[C@@H](CC(C)(C)C)C(=O)N1C[C@]2(C[C@H]1C#N)C(=O)Nc1ccccc12 [Example 375] was tested. Which IC50 did it give?
Its IC50 is < 0.1 µM.
